Source: ChEMBL document CHEMBL4342450, “Antitumor Activity of Ohmyungsamycin A through the Regulation of the Skp2-p27 Axis and MCM4 in Human Colorectal Cancer Cells” (J Nat Prod, 2020)
Activity calls are given as the source filed them. The rule behind the calls is not given here. *1 amine or outer side, *2 acyl side, *3 side chain or, on linkers, in order; H or OH if unused. Where a SMILES comes first, the peptide text is derived from it. Bridges are numbered along the chain shown (N, C = ends). [ ]: non-standard residue; d: D form. Phe(3R-OH) = O=C([C@@H](N[*:1])[C@H](O[*:3])c1ccccc1)[*:2]; NMeTrp(4-OMe) = CN[C@@H](Cc1c[nH]c2cccc(OC)c12)C(=O)O; NMeT = CN[C@H](C(=O)O)[C@@H](C)O; NMeL = CN[C@@H](CC(C)C)C(=O)O; NMeV = CN[C@H](C(=O)O)C(C)C

Tests used:
HCT-116 [1] = assay: Induction of cell cycle arrest in human HCT116 cells assessed as accumulation at S phase at 20 uM incubated for 18 hrs by propidium iodide staining based flow cytometry (reference value: 26.8%); format: functional
HCT-116 [2] = assay: Modulation of Skp2-p27 Axis in human HCT116 cells assessed as downregulation of Skp2 expression at 5 to 20 uM after 24 hrs by Western blot analysis; format: functional, cell-based
HCT-116 [3] = assay: Induction of cell cycle arrest in human HCT116 cells assessed as accumulation at G2/M phase at 20 uM incubated for 18 hrs by propidium iodide staining based flow cytometry (reference value: 25.1%); format: functional
HCT-116 [4] = assay: Induction of cell cycle arrest in human HCT116 cells assessed as accumulation at G2/M phase at 20 uM incubated for 24 hrs by propidium iodide staining based flow cytometry (reference value: 15.7%); format: functional
HCT-116 [5] = assay: Downregulation of DSCC1 gene expression in human HCT116 cells assessed as fold change at 15 uM incubated for 24 hrs by cDNA microarray analysis relative to control; format: functional
HCT-116 [6] = assay: Induction of apoptosis in human HCT116 cells assessed as reduction in Bcl-2 level at 5 to 20 uM after 24 hrs by Western blot analysis; format: functional, cell-based
Mus musculus [7] = assay: In vivo modulation of Skp2-p27 axis in tumor of BALB/c nude mouse xenografted with human HCT116 cells assessed as downregulation of Skp2 mRNA level at 5 to 10 m/kg, ip administered thrice a week for 3.5 weeks by RT-PCR method; format: functional, organism-based
HCT-116 [8] = assay: Induction of cell cycle arrest in human HCT116 cells assessed as accumulation at sub-G1 phase at 10 uM incubated for 24 hrs by propidium iodide staining based flow cytometry (reference value: 4.8%); format: functional
HCT-116 [9] = assay: Modulation of Skp2-p27 Axis in human HCT116 cells assessed as upregulation of p21 expression after 24 hrs by Western blot analysis; format: functional, cell-based
HCT-116 [10] = assay: Downregulation of MCM4 protein expression in human HCT116 cells at 5 to 20 uM after 24 hrs by Western blot analysis; format: functional, cell-based
HCT-116 [11] = assay: Induction of apoptosis in human HCT116 cells assessed as reduction in uncleaved full length caspase 8 level after 24 hrs by Western blot analysis; format: functional, cell-based
HCT-116 [12] = assay: Induction of apoptosis in human HCT116 cells assessed as increase in cleaved PARP level at 20 uM after 24 hrs by Western blot analysis; format: functional, cell-based
HCT-116 [13] = assay: Induction of cell cycle arrest in human HCT116 cells assessed as accumulation at G2/M phase at 5 uM incubated for 18 hrs by propidium iodide staining based flow cytometry (reference value: 25.1%); format: functional
HCT-116 [14] = assay: Induction of morphological changes in human HCT116 cells assessed as appearance of shrunken cells at 4 to 20 uM by inverted phase-contrast microscopic method; format: functional, cell-based
HCT-116 [15] = assay: Induction of cell cycle arrest in human HCT116 cells assessed as accumulation at sub-G1 phase at 10 uM incubated for 18 hrs by propidium iodide staining based flow cytometry (reference value: 0.9%); format: functional
HCT-116 [16] = assay: Induction of cell cycle arrest in human HCT116 cells assessed as accumulation at S phase at 10 uM incubated for 18 hrs by propidium iodide staining based flow cytometry (reference value: 26.8%); format: functional
HCT-116 [17] = assay: Induction of cell cycle arrest in human HCT116 cells assessed as accumulation at G0/G1 phase incubated for 18 hrs by propidium iodide staining based flow cytometry; format: functional
HCT-116 [18] = assay: Downregulation of HSPA1A gene expression in human HCT116 cells assessed as fold change at 15 uM incubated for 24 hrs by cDNA microarray analysis relative to control; format: functional
HCT-116 [19] = assay: Downregulation of MCM5 gene expression in human HCT116 cells assessed as fold change at 15 uM incubated for 24 hrs by cDNA microarray analysis relative to control; format: functional
HCT-116 [20] = assay: Induction of cell cycle arrest in human HCT116 cells assessed as accumulation at sub-G1 phase at 5 uM incubated for 18 hrs by propidium iodide staining based flow cytometry (reference value: 0.9%); format: functional
HCT-116 [21] = assay: Downregulation of HIST1H2BM gene expression in human HCT116 cells assessed as fold change at 15 uM incubated for 24 hrs by cDNA microarray analysis relative to control; format: functional
HCT-116 [22] = assay: Induction of cell cycle arrest in human HCT116 cells assessed as accumulation at S phase at 5 uM incubated for 18 hrs by propidium iodide staining based flow cytometry (reference value: 26.8%); format: functional
HCT-116 [23] = assay: Downregulation of PEG10 gene expression in human HCT116 cells assessed as fold change at 15 uM incubated for 24 hrs by cDNA microarray analysis relative to control; format: functional
HCT-116 [24] = assay: Induction of apoptosis in human HCT116 cells assessed as reduction in Bid level at 5 to 20 uM after 24 hrs by Western blot analysis; format: functional, cell-based
HCT-116 [25] = assay: Induction of apoptosis in human HCT116 cells assessed as increase in cleaved caspase 7 level after 24 hrs by Western blot analysis; format: functional, cell-based
HCT-116 [26] = assay: Modulation of Skp2-p27 Axis in human HCT116 cells assessed as upregulation of p27 expression after 24 hrs by Western blot analysis; format: functional, cell-based
HCT-116 [27] = assay: Induction of cell cycle arrest in human HCT116 cells assessed as accumulation at G0/G1 phase at 10 uM incubated for 18 hrs by propidium iodide staining based flow cytometry (reference value: 43.3%); format: functional
HCT-116 [28] = assay: Induction of cell cycle arrest in human HCT116 cells assessed as accumulation at G2/M phase at 10 uM incubated for 18 hrs by propidium iodide staining based flow cytometry (reference value: 25.1%); format: functional
HCT-116 [29] = assay: Downregulation of FAM111B gene expression in human HCT116 cells assessed as fold change at 15 uM incubated for 24 hrs by cDNA microarray analysis relative to control; format: functional
Mus musculus [30] = assay: In vivo modulation of MCM4 in tumor of BALB/c nude mouse xenografted with human HCT116 cells assessed as downregulation of MCM4 mRNA level at 5 to 10 m/kg, ip administered thrice a week for 3.5 weeks by RT-PCR method; format: functional, organism-based
HCT-116 [31] = assay: Downregulation of SKP2 gene expression in human HCT116 cells assessed as fold change at 15 uM incubated for 24 hrs by cDNA microarray analysis relative to control; format: functional
Mus musculus [32] = assay: In vivo modulation of MCM4 in tumor of BALB/c nude mouse xenografted with human HCT116 cells assessed as downregulation of MCM4 level at 5 to 10 m/kg, ip administered thrice a week for 3.5 weeks by Western blot analysis; format: functional, organism-based
HCT-116 [33] = assay: Induction of cell cycle arrest in human HCT116 cells assessed as accumulation at G0/G1 phase at 20 uM incubated for 18 hrs by propidium iodide staining based flow cytometry (reference value: 43.3%); format: functional
HCT-116 [34] = assay: Downregulation of HSPA1B gene expression in human HCT116 cells assessed as fold change at 15 uM incubated for 24 hrs by cDNA microarray analysis relative to control; format: functional
HCT-116 [35] = assay: Downregulation of DKK1 gene expression in human HCT116 cells assessed as fold change at 15 uM incubated for 24 hrs by cDNA microarray analysis relative to control; format: functional

Compound: CN[C@H](C(=O)N[C@H](C(=O)N[C@@H]1C(=O)N(C)[C@@H]([C@@H](C)O)C(=O)N[C@@H](C(C)C)C(=O)N(C)[C@@H](CC(C)C)C(=O)N[C@@H](C(C)C)C(=O)N(C)[C@@H](C(C)C)C(=O)N(C)[C@@H](Cc2c[nH]c3cccc(OC)c23)C(=O)N[C@@H](C(C)C)C(=O)N[C@@H]([C@H](O)c2ccccc2)C(=O)N[C@@H](C(C)C)C(=O)O[C@@H]1C)C(C)C)C(C)C (H-[NMeV]VT[NMeT]V[NMeL]V[NMeV][NMeTrp(4-OMe)]V[Phe(3R-OH)]V; ester 3-C)
- Activity (HCT-116 [1]): 16%
- inhibition (HCT-116 [2]): Active
- Activity (HCT-116 [3]): 16.9%
- Activity (HCT-116 [4]): 10.8%
- fold change (FC) (HCT-116 [5]): 4.856
- Activity (HCT-116 [6]): Active
- inhibition (Mus musculus [7]): Active
- Activity (HCT-116 [8]): 14.7%
- Activity (HCT-116 [9]): Dose-dependent effect
- inhibition (HCT-116 [10]): Active
- Activity (HCT-116 [11]): Dose-dependent effect
- Activity (HCT-116 [12]): Active
- Activity (HCT-116 [13]): 22.3%
- Activity (HCT-116 [14]): Active
- Activity (HCT-116 [15]): 1.8%
- Activity (HCT-116 [16]): 26.6%
- Activity (HCT-116 [17]): Dose-dependent effect
- fold change (FC) (HCT-116 [18]): 4.43
- fold change (FC) (HCT-116 [19]): 5.219
- Activity (HCT-116 [20]): 1.4%
- fold change (FC) (HCT-116 [21]): 7.527
- Activity (HCT-116 [22]): 27.5%
- fold change (FC) (HCT-116 [23]): 4.917
- Activity (HCT-116 [24]): Active
- Activity (HCT-116 [25]): Dose-dependent effect
- Activity (HCT-116 [26]): Dose-dependent effect
- Activity (HCT-116 [27]): 51.4%
- Activity (HCT-116 [28]): 15.4%
- fold change (FC) (HCT-116 [29]): 7.557
- inhibition (Mus musculus [30]): Active
- fold change (FC) (HCT-116 [31]): 4.898
- inhibition (Mus musculus [32]): Active
- Activity (HCT-116 [33]): 55.4%
- fold change (FC) (HCT-116 [34]): 4.531
- fold change (FC) (HCT-116 [35]): 4.144
